The target in experiment [1] is T1, EGFR L858R/T790M (H1975-clone #36, homozygous) (Homo sapiens, UniProt P00533, L858R/T790M).
T1 construct: designed to specifically target WT EGFR but preserve the L858R/T790M copy; host or cells: H1975-clone #36
The experiment is described as follows: EGFR degradation HTRF assay, H1975-clone #36 cells. The experiment is classed as cell-based. The settings on record: H1975 #36, 16h treatment; for Dmax: NCI-H1975, maximum percentage of degradation. The method, then: H1975-clone #36(L858R/T790M). H1975 cell heterozygously (from ATCC) contains alleles of WT and L858R/T790M EGFR. H1975-clone #36(L858R/T790M) was generated by gene knockout, in which the EGFR targeting sgRNA was designed to specifically target WT EGFR but preserve the L858R/T790M copy. Followed by the gene knockout, the edited H1975 cells were seeded in 96 well plates at the concentration of 1 cell/well, cultured for about 2 weeks to allow single clones formation. The formed clones were screened by DNA sequencing for the desired edition. H1975-clone #36 was confirmed as a homozygous L858R/T790M EGFR clone.
BaF3 WT(wild type), BaF3-LTC(L858R/T790M/C797S) and BaF3-DTC(Del19/T790M/C797S) cells are treated with compounds diluted in 0.2% DMSO cell culture medium and incubate for 16h, 37° C., 5% CO2, H1975-#36, H1975-#28, H1975-#23 and HCC827 cells are treated with compounds diluted in 0.2% DMSO cell culture medium on day 2, incubate for 16h, 37° C., 5% CO2.the final concentriation of compounds in all assay is start with 10 uM, 5-fold dilution, total 8 doses were included.
After 16h treatment, add HTRF lysis buffer to each well; seal the plate and incubate 1 hour at room temperature on a plate shaker; Once the cells are lysed, 16 μL of cell lysate are transferred to a PE 384-well HTRF detection plate; 4 μL of pre-mixed HTRF antibodies are added to each well; Cover the plate with a plate sealer, spin 1000 rpm for 1 min, Incubate overnight at room temperature; Read on BMG PheraStar with HTRF protocol (337 nm-665 nm-620 nm).
The inhibition (degradation) percentage of the compound was calculated by the following equation: Inhibition percentage of Compound=100-100×(Signal-low control)/(High control-low control), wherein signal=each test compound group
High control=Cell group with added DMSO and without compound, indicating microplate readings without EGFR degradation;
Dmax is the maximum percentage of inhibition (degradation).
The IC50 (DC50) value of a compound can be obtained by fitting the following equation
Y=Bottom+(TOP−Bottom)/(1+((IC50/X)^hillslope))
Wherein, X and Y are known values, and IC50, Hillslope, Top and Bottom are the parameters obtained by fitting with software. Y is the inhibition percentage (calculated from the equation), X is the concentration of the compound; IC50 is the concentration of the compound when the 50% inhibition is reached. The smaller the IC50 value is, the stronger the inhibitory ability of the compound is. Vice versa, the higher the IC50 value is, the weaker the inhibitory ability of the compound is; Hillslope represents the slope of the fitted curve, generally around 1*; Bottom represents the minimum value of the curve obtained by data fitting, which is generally 0%±20%; Top represents the maximum value of the curve obtained by data fitting, which is generally 100%±20%. The experimental data were fitted by calculating and analyzing with Dotmatics data analysis software.

A further experiment concerns the target T2, EGFR (HCC827 cells) (Homo sapiens, UniProt P00533, DEL746-750).
T2 construct: endogenous in cells; host or cells: HCC827
The experiment is described as follows: EGFR degradation HTRF assay, HCC827 cells. The settings on record: HCC827, 16h treatment; for Dmax: maximum percentage of degradation. The experiment is classed as cell-based. The gist of the method: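 Cells treated 16 h at 37 °C, 5% CO2 in medium with 0.2% DMSO; top final concentration 10 uM, 5-fold dilution, 8 doses. Lysates read by HTRF (665/620 nm); degradation % versus DMSO high control, DC50 from four-parameter fit, Dmax as maximal degradation.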
On the technique in general: In TR-FRET formats the signal depends on donor and acceptor labels being close together.

T2 sequence (P00533 with tags, fused parts or gaps DEL746-750): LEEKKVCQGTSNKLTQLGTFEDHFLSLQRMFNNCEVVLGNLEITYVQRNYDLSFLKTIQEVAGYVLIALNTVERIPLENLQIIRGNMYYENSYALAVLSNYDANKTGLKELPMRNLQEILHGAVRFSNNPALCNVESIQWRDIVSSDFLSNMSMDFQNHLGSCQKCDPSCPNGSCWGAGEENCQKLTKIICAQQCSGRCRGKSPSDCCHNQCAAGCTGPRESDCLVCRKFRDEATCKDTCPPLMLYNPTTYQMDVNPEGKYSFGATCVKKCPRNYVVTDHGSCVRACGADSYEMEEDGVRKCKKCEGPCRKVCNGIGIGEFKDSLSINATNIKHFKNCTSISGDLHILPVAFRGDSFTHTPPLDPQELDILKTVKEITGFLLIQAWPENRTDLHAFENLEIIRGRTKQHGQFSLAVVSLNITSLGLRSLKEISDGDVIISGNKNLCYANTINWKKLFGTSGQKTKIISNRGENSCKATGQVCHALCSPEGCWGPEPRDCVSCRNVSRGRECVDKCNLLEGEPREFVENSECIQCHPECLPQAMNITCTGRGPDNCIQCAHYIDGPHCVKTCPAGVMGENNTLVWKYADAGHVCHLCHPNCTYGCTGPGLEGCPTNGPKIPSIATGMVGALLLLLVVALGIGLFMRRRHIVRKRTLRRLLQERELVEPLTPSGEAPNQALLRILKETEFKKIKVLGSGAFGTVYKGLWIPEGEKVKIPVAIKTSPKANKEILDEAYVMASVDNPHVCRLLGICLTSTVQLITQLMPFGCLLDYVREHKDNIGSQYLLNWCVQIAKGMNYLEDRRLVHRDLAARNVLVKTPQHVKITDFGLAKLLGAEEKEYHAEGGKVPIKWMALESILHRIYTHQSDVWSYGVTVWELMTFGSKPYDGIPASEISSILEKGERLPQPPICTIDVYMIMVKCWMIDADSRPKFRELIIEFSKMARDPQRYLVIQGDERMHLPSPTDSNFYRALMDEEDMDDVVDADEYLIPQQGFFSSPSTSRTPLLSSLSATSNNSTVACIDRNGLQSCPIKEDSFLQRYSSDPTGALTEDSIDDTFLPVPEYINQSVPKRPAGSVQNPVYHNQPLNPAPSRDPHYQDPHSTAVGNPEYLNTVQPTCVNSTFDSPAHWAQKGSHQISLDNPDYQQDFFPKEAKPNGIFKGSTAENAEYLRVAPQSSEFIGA
T1 sequence (P00533 25-1210 T790M/L858R): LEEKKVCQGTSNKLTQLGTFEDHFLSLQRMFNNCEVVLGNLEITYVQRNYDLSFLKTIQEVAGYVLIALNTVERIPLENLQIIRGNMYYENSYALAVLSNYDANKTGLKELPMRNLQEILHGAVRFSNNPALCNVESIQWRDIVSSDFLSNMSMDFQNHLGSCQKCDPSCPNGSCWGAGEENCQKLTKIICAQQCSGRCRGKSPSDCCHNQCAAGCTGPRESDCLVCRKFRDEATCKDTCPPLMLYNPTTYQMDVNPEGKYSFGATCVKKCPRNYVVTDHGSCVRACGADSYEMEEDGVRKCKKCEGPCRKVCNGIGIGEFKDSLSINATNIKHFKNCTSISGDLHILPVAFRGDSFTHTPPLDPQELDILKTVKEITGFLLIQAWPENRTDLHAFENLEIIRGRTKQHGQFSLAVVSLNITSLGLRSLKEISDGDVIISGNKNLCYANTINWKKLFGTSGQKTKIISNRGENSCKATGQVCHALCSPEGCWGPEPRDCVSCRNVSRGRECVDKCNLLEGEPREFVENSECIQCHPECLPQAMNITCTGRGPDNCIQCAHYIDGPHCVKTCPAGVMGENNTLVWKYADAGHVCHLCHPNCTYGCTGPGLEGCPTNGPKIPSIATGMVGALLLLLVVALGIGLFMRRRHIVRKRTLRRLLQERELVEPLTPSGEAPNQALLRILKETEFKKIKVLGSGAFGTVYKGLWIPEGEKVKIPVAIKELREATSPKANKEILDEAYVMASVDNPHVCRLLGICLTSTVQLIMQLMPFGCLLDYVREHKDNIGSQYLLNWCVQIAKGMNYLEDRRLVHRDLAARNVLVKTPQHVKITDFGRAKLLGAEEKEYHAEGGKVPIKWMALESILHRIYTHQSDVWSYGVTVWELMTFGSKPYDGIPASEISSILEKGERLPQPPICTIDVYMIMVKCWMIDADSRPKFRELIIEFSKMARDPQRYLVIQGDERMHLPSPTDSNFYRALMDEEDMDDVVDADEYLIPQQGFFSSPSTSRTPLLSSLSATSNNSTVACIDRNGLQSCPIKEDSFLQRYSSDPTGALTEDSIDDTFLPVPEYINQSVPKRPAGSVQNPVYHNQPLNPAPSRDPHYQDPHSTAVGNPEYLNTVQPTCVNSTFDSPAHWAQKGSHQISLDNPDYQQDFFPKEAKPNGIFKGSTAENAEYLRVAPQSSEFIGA

As for `COc1cc(N2CCN(CC3CCN(c4ccc(C5CCC(=O)NC5=O)cc4)CC3)CC2)ccc1Nc1ncc(Br)c(Nc2ccc3nccnc3c2P(C)(C)=O)n1` (centres unmarked) [Example 89, 3-(4-(4-((4-(4-((5-bromo-4-((5-(dimethylphosphoryl)quinoxalin-6-yl)amino)pyrimidin-2-yl)amino)-3-methoxyphenyl)piperazin-1-yl)methyl)piperidin-1-yl)phenyl)piperidine-2,6-dione], in experiment [1], half-maximal degradation (DC50) was put at 6.23 nM and the greatest degradation seen (Dmax) (usually the largest share of the target that was removed) was 84.7%. Also, at EGFR (HCC827 cells), half-maximal degradation (DC50) was put at 59.6 nM and the Dmax came out at 91.8%.
For `COc1cc(N2CCN(CCC3CCN(c4ccc(C5CCC(=O)NC5=O)cc4)CC3)CC2)c(C)cc1Nc1ncc(Br)c(Nc2ccc3nccnc3c2P(C)(C)=O)n1` (centres unmarked) [Example 90, 3-(4-(4-(2-(4-(4-((5-bromo-4-((5-(dimethylphosphoryl)quinoxalin-6-yl)amino)pyrimidin-2-yl)amino)-5-methoxy-2-methylphenyl)piperazin-1-yl)ethyl)piperidin-1-yl)phenyl)piperidine-2,6-dione] the same measures were 6.53 nM, 77.5%, 12.8 nM and 81.4%.
Consider `COc1cc(N2CCN(CC3CCN(c4ccc(N5CCC(=O)NC5=O)cc4)CC3)CC2)c(C)cc1Nc1ncc(Br)c(Nc2ccc3nccnc3c2P(C)(C)=O)n1` [Example 95, 1-(4-(4-((4-(4-((5-bromo-4-((5-(dimethylphosphoryl)quinoxalin-6-yl)amino)pyrimidin-2-yl)amino)-5-methoxy-2-methylphenyl)piperazin-1-yl)methyl)piperidin-1-yl)phenyl)dihydropyrimidine-2,4(1H,3H)-dione], for which, in experiment [1], the 50% degradation concentration (DC50) (as a rule, the concentration giving 50% degradation) was determined as 9030 nM and the Dmax was 61.6%. Moreover, on EGFR (HCC827 cells), the DC50 was 147 nM and the maximal degradation (Dmax) came to 71.3%.
In the case of `COc1cc(N2CCN(CC3CCN(c4ccc(N5CCC(=O)NC5=O)c(F)c4)CC3)CC2)c(C)cc1Nc1ncc(Br)c(Nc2ccc3nccnc3c2P(C)(C)=O)n1` [Example 96, 1-(4-(4-((4-(4-((5-bromo-4-((5-(dimethylphosphoryl)quinoxalin-6-yl)amino)pyrimidin-2-yl)amino)-5-methoxy-2-methylphenyl)piperazin-1-yl)methyl)piperidin-1-yl)-2-fluorophenyl)dihydropyrimidine-2,4(1H,3H)-dione], the 50% degradation concentration (DC50) in experiment [1] is more than 10000 nM; at EGFR (HCC827 cells), 151 nM. Further, the Dmax was determined as 7.3% in experiment [1] and 67% on EGFR (HCC827 cells).
For `COc1cc(N2CCN(CC3CCN(c4ccc(N5CCC(=O)NC5=O)cc4F)CC3)CC2)c(C)cc1Nc1ncc(Br)c(Nc2ccc3nccnc3c2P(C)(C)=O)n1` [Example 97, 1-(4-(4-((4-(4-((5-bromo-4-((5-(dimethylphosphoryl)quinoxalin-6-yl)amino)pyrimidin-2-yl)amino)-5-methoxy-2-methylphenyl)piperazin-1-yl)methyl)piperidin-1-yl)-3-fluorophenyl)dihydropyrimidine-2,4(1H,3H)-dione], the 50% degradation concentration (DC50) in experiment [1] was more than 10000 nM; on EGFR (HCC827 cells) it was 118 nM. For the same compound, the Dmax in experiment [1] came out at 11.2%; at EGFR (HCC827 cells), 62.8%.
For `COc1cc(N2CCN(CC3CCN(c4ccc(N5CCC(=O)NC5=O)cc4C)CC3)CC2)c(C)cc1Nc1ncc(Br)c(Nc2ccc3nccnc3c2P(C)(C)=O)n1` [Example 98, 1-(4-(4-((4-(4-((5-bromo-4-((5-(dimethylphosphoryl)quinoxalin-6-yl)amino)pyrimidin-2-yl)amino)-5-methoxy-2-methylphenyl)piperazin-1-yl)methyl)piperidin-1-yl)-3-methylphenyl)dihydropyrimidine-2,4(1H,3H)-dione] the same measures were more than 10000 nM, 166 nM, 8.3% and 62.3%.
With `COc1cc(N2CCN(CC3CCN(c4ccc(N5CCC(=O)NC5=O)c(C)c4)CC3)CC2)c(C)cc1Nc1ncc(Br)c(Nc2ccc3nccnc3c2P(C)(C)=O)n1` [Example 99, 1-(4-(4-((4-(4-((5-bromo-4-((5-(dimethylphosphoryl)quinoxalin-6-yl)amino)pyrimidin-2-yl)amino)-5-methoxy-2-methylphenyl)piperazin-1-yl)methyl)piperidin-1-yl)-2-methylphenyl)dihydropyrimidine-2,4(1H,3H)-dione], in experiment [1], the DC50 was more than 10000 nM and the Dmax stood at 35.6%. On EGFR (HCC827 cells), it took 60.1 nM to reach half-maximal degradation (DC50) and the greatest degradation seen (Dmax) stood at 78.5%.
In experiment [1], `COc1cc(N2CCN(C3CN(C(=O)c4cnc(C(=O)Nc5ccc(C6CCC(=O)NC6=O)cc5)cn4)C3)CC2)c(C)cc1Nc1ncc(Br)c(Nc2ccc3nccnc3c2P(C)(C)=O)n1` (centres unmarked) [Example 100, 5-(3-(4-(4-((5-bromo-4-((5-(dimethylphosphoryl)quinoxalin-6-yl)amino)pyrimidin-2-yl)amino)-5-methoxy-2-methylphenyl)piperazin-1-yl)azetidine-1-carbonyl)-N-(4-(2,6-dioxopiperidin-3-yl)phenyl)pyrazine-2-carboxamide] displayed a DC50 of 8.7 nM and a maximal degradation (Dmax) of 62.6%. For the same compound, at EGFR (HCC827 cells), the half-maximal degradation concentration (DC50) is 6.34 nM and the Dmax worked out at 76.9%.
Take `COc1cc(N2CCN(CCCC(=O)N[C@H](C(=O)N3C[C@H](O)C[C@H]3C(=O)N[C@@H](C)c3ccc(-c4scnc4C)cc3)C(C)(C)C)CC2)c(C)cc1Nc1ncc(Br)c(Nc2ccc3nccnc3c2P(C)(C)=O)n1` [Example 102, (2S,4R)-1-((S)-2-(4-(4-(4-((5-bromo-4-((5-(dimethylphosphoryl)quinoxalin-6-yl)amino)pyrimidin-2-yl)amino)-5-methoxy-2-methylphenyl)piperazin-1-yl)butanamido)-3,3-dimethylbutanoyl)-4-hydroxy-N—((S)-1-(4-(4-methylthiazol-5-yl)phenyl)ethyl)pyrrolidine-2-carboxamide]: the 50% degradation concentration (DC50) is 81.7 nM in experiment [1] and 70.1 nM at EGFR (HCC827 cells). The Dmax in experiment [1] came out at 65.1%; at EGFR (HCC827 cells), 75.9%.
On to `CCc1cc(Nc2ncc(Br)c(Nc3ccc4nccnc4c3P(C)(C)=O)n2)c(OC)cc1N1CCC(N2CCN(CCOCCC(=O)N[C@H](C(=O)N3C[C@H](O)C[C@H]3C(=O)NCc3ccc(-c4scnc4C)cc3)C(C)(C)C)CC2)CC1` [Example 103, (2S,4R)-1-((S)-2-(3-(2-(4-(1-(4-((5-bromo-4-((5-(dimethylphosphoryl)quinoxalin-6-yl)amino)pyrimidin-2-yl)amino)-2-ethyl-5-methoxyphenyl)piperidin-4-yl)piperazin-1-yl)ethoxy)propanamido)-3,3-dimethylbutanoyl)-4-hydroxy-N-(4-(4-methylthiazol-5-yl)benzyl)pyrrolidine-2-carboxamide], for which the DC50 in experiment [1] worked out at 43.1 nM; at EGFR (HCC827 cells) it was 28.8 nM. Moreover, the Dmax stood at 79.6% in experiment [1] and 84.2% on EGFR (HCC827 cells).
For `COc1cc(N2CCC(N3CCN(CCc4ccc(C5CCC(=O)NC5=O)cc4)CC3)CC2)ccc1Nc1ncc(Cl)c(Nc2ccccc2P(C)(C)=O)n1` (centres unmarked) [Example 104, 3-(4-(2-(4-(1-(4-((5-chloro-4-((2-(dimethylphosphoryl)phenyl)amino)pyrimidin-2-yl)amino)-3-methoxyphenyl)piperidin-4-yl)piperazin-1-yl)ethyl)phenyl)piperidine-2,6-dione], the results for the half-maximal degradation concentration (DC50) (in experiment [1]; at EGFR (HCC827 cells)) were 5.89 nM and 17.7 nM, respectively. The Dmax in experiment [1] stood at 74.7%; at EGFR (HCC827 cells) it was 83.4%.
